Test results reported in patent publication US20090117215A1, “EXTRACT OF CERATONIA SILIQUA LEAVES AND PODS CONTAINING POLYPHENOLS WITH ANTIOXIDANT AND ANTITUMOR ACTIVITIES” (priority 2001, published 2009).

How the values were obtained:
[1] = tested on: T1 cells (liver tumour cells); assay: Cell proliferation assay (MTS) in T1 hepatic tumour cells; type: cell-based, mice; settings: for concentration at which proliferation is already inhibited / concentration reaching the peak activity (inhibition of proliferation): hepatic tumour cell cultures (T1), 24 and 48 hours exposure; for inhibition of cell proliferation in liver tumour cells: FIG. 1, after 24 and 48 hours exposure
Protocol: (§1) Tumour cell cultures (T1) used in the tests derive from transgenic mice hepatocellular carcinoma, in which an over-expression of the c-myc and TGFα had been induced. Cells were kept in L-glutamine-free DMEM medium, HAM F 12 containing 1 mg/ml galactose, 18 mM HEPES, 5 mM Na piruvate, 30 mg/M1 proline, ITS 100×, 2 mM glutamine, 0.1% gentamicin (Sigma-Aldrich, Italy) and added with 10% FBS. Cell lines were cultured in polystyrene plates (Dasit, Italy).
T1 cells were plated in 96 wells-plates at a concentration of 10,000 cells/well and left to sediment for 4-5 hours. Cells were then incubated in EGCG or ECG at a concentration of 20, 40, 60, 80, 160 μg/ml for 24 and 48 hours. The substances were diluted in the culture medium starting from stock solutions (aqueous solution for EGCG and aqueous-ethanol solution (1:1) for ECG). Control cells were treated with solutions containing ethanol in amounts corresponding to that of the samples containing catechins. After 24 or 48 hours, the proliferation was calorimetrically measured using a specific kit (Cell Titer Aqueous Cell Proliferation Assay, Promega) which makes use of a calorimetric transformation reaction of colourless MTS (tetrazolium salt) into coloured formazan by living, proliferating cells. Formazan quantitation was carried out by spectrophotometric analysis at λ=490 nm.

caspase 3 = assay: Evaluation of caspase 3 activation in T1 cell lysates; type: cell-based, mice; settings: 80 μg/ml, compared with untreated cells; FIG. 2
Protocol: as §1
Caspase 3 protease activity in cells lysates was determined using a Promega kit. T1 Cells were treated with EGCG and ECG (80 μg/ml) alone or in combination with a caspase inhibitor (Z-VAD-FMK) for 24 or 48 hours. Afterwards a calorimetric substrate (DEVD-pNA) able to evidence the protease activity was added. After incubation for 4 hours at 37° C., the protease activity was determined by spectrophotometric analysis at λ=405 nm.

Row | SMILES | concentration at which proliferation is already inhibited [1] [µg/mL] | concentration reaching the peak activity (inhibition of proliferation) [1] [µg/mL] | caspase 3 protease activity (caspase 3) | inhibition of cell proliferation in liver tumour cells [1]
1 | O=C(O[C@@H]1Cc2c(O)cc(O)cc2O[C@@H]1c1ccc(O)c(O)c1)c1cc(O)c(O)c(O)c1 [ECG, (−)-epicatechin-3-gallate] | 40 | 80 | activation | 
2 | Oc1cc(O)c2c(c1)O[C@H](c1cc(O)c(O)c(O)c1)[C@H](O)C2 [EGC, epigallocatechin] |  |  |  | dose-dependent
3 | O=C(O[C@@H]1Cc2c(O)cc(O)cc2O[C@@H]1c1cc(O)c(O)c(O)c1)c1cc(O)c(O)c(O)c1 [EGCG, (−)-epigallocatechin-3-gallate] | 40 | 80 | activation | dose-dependent
